Measurements reported in ChEMBL document CHEMBL3407459, “Synthesis and antimicrobial activity of novel structural hybrids of benzofuroxan and benzothiazole derivatives” (2015).

Tests used:
Escherichia coli [1] = assay: Antibacterial activity against Escherichia coli MG1655 harboring pColD-lux assessed as maximum induction factor at 10^-11 M after 120 mins by luminometric analysis; assay type: functional, K-12 substr. MG1655
[2] = Activation of quorum sensing system luxR in Escherichia coli MG1655 harboring pVFR1-lux assessed as maximum induction factor at 10^-11 M after 120 mins by luminometric analysis; settings: Escherichia coli str. K-12 substr. MG1655
Escherichia coli [3] = assay: Antibacterial activity against Escherichia coli MG1655 harboring pRecA-lux assessed as maximum induction factor at 10^-12 M after 120 mins by luminometric analysis; assay type: functional, K-12 substr. MG1655
Escherichia coli [4] = assay: Antibacterial activity against Escherichia coli MG1655 harboring pGrpE-lux assessed as maximum induction factor at 10^-12 M after 120 mins by luminometric analysis; assay type: functional, K-12 substr. MG1655
Escherichia coli [5] = assay: Antibacterial activity against Escherichia coli MG1655 harboring pSoxS-lux assessed as maximum induction factor at 10^-13 M after 120 mins by luminometric analysis; assay type: functional, K-12 substr. MG1655
Escherichia coli [6] = assay: Antibacterial activity against Escherichia coli MG1655 harboring pKatG-lux assessed as maximum induction factor at 10^-13 M after 120 mins by luminometric analysis; assay type: functional, K-12 substr. MG1655
Escherichia coli [7] = assay: Antibacterial activity against Escherichia coli MG1655 harboring pIbpA-lux assessed as maximum induction factor at 10^-13 M after 120 mins by luminometric analysis; assay type: functional, K-12 substr. MG1655
Escherichia coli [8] = assay: Antibacterial activity against Escherichia coli MG1655 harboring pGrpE-lux assessed as maximum induction factor at 10^-14 M after 120 mins by luminometric analysis; assay type: functional, K-12 substr. MG1655
Escherichia coli [9] = assay: Antibacterial activity against Escherichia coli MG1655 harboring pIbpA-lux assessed as maximum induction factor at 10^-14 M after 120 mins by luminometric analysis; assay type: functional, K-12 substr. MG1655
Vibrio sp. [10] = assay: Antibacterial activity against Vibrio aqamarinus VKPM B-11245 assessed as toxicity index at 10^-7 M measured for 2 hrs by luminometric analysis; assay type: functional
Vibrio sp. [11] = assay: Antibacterial activity against Vibrio aqamarinus VKPM B-11245 assessed as toxicity index at 10^-10 M measured for 2 hrs by luminometric analysis; assay type: functional
Vibrio sp. [12] = assay: Antibacterial activity against Vibrio aqamarinus VKPM B-11245 assessed as toxicity index at 10^-11 M measured for 2 hrs by luminometric analysis; assay type: functional
Escherichia coli [13] = assay: Antibacterial activity against Escherichia coli MG1655 harboring pXen7 assessed as toxicity index at 10^-10 M measured for 2 hrs by luminometric analysis; assay type: functional, K-12 substr. MG1655
Escherichia coli [14] = assay: Antibacterial activity against Escherichia coli MG1655 harboring pXen7 assessed as toxicity index at 10^-13 M measured for 2 hrs by luminometric analysis; assay type: functional, K-12 substr. MG1655
Escherichia coli [15] = assay: Antibacterial activity against Escherichia coli MG1655 harboring pXen7 assessed as toxicity index at 10^-14 M measured for 2 hrs by luminometric analysis; assay type: functional, K-12 substr. MG1655
Escherichia coli [16] = assay: Antibacterial activity against Escherichia coli MG1655 harboring pKatG-lux assessed as maximum induction factor at 10^-3 M after 120 mins by luminometric analysis; assay type: functional, K-12 substr. MG1655
Escherichia coli [17] = assay: Antibacterial activity against Escherichia coli MG1655 harboring pRecA-lux assessed as maximum induction factor at 10^-3 M after 120 mins by luminometric analysis; assay type: functional, K-12 substr. MG1655
Escherichia coli [18] = assay: Antibacterial activity against Escherichia coli MG1655 harboring pIbpA-lux assessed as maximum induction factor at 10^-3 M after 120 mins by luminometric analysis; assay type: functional, K-12 substr. MG1655
Escherichia coli [19] = assay: Antibacterial activity against Escherichia coli MG1655 harboring pSoxS-lux assessed as maximum induction factor at 10^-4 M after 120 mins by luminometric analysis; assay type: functional, K-12 substr. MG1655
[20] = Activation of quorum sensing system luxR in Escherichia coli MG1655 harboring assessed as maximum induction factor at 10^-4 M after 120 mins by luminometric analysis; settings: Escherichia coli str. K-12 substr. MG1655
Escherichia coli [21] = assay: Antibacterial activity against Escherichia coli MG1655 harboring pGrpE-lux assessed as maximum induction factor at 10^-5 M after 120 mins by luminometric analysis; assay type: functional, K-12 substr. MG1655
[22] = Activation of quorum sensing system luxR in Escherichia coli MG1655 harboring pVFR1-lux assessed as maximum induction factor at 10^-5 M after 120 mins by luminometric analysis; settings: Escherichia coli str. K-12 substr. MG1655
Escherichia coli [23] = assay: Antibacterial activity against Escherichia coli MG1655 harboring pSoxS-lux assessed as maximum induction factor at 10^-6 M after 120 mins by luminometric analysis; assay type: functional, K-12 substr. MG1655
Escherichia coli [24] = assay: Antibacterial activity against Escherichia coli MG1655 harboring pKatG-lux assessed as maximum induction factor at 10^-6 M after 120 mins by luminometric analysis; assay type: functional, K-12 substr. MG1655
Escherichia coli [25] = assay: Antibacterial activity against Escherichia coli MG1655 harboring pKatG-lux assessed as maximum induction factor at 10^-7 M after 120 mins by luminometric analysis; assay type: functional, K-12 substr. MG1655
Escherichia coli [26] = assay: Antibacterial activity against Escherichia coli MG1655 harboring pRecA-lux assessed as maximum induction factor at 10^-7 M after 120 mins by luminometric analysis; assay type: functional, K-12 substr. MG1655
Escherichia coli [27] = assay: Antibacterial activity against Escherichia coli MG1655 harboring pColD-lux assessed as maximum induction factor at 10^-7 M after 120 mins by luminometric analysis; assay type: functional, K-12 substr. MG1655
Escherichia coli [28] = assay: Antibacterial activity against Escherichia coli MG1655 harboring pIbpA-lux assessed as maximum induction factor at 10^-7 M after 120 mins by luminometric analysis; assay type: functional, K-12 substr. MG1655
[29] = Activation of quorum sensing system luxR in Escherichia coli MG1655 harboring pVFR1-lux assessed as maximum induction factor at 10^-7 M after 120 mins by luminometric analysis; settings: Escherichia coli str. K-12 substr. MG1655
Escherichia coli [30] = assay: Antibacterial activity against Escherichia coli MG1655 harboring pGrpE-lux assessed as maximum induction factor at 10^-8 M after 120 mins by luminometric analysis; assay type: functional, K-12 substr. MG1655
[31] = Activation of quorum sensing system luxR in Escherichia coli MG1655 harboring pVFR1-lux assessed as maximum induction factor at 10^-8 M after 120 mins by luminometric analysis; settings: Escherichia coli str. K-12 substr. MG1655
Escherichia coli [32] = assay: Antibacterial activity against Escherichia coli MG1655 harboring pSoxS-lux assessed as maximum induction factor at 10^-9 M after 120 mins by luminometric analysis; assay type: functional, K-12 substr. MG1655
Escherichia coli [33] = assay: Antibacterial activity against Escherichia coli MG1655 harboring pRecA-lux assessed as maximum induction factor at 10^-9 M after 120 mins by luminometric analysis; assay type: functional, K-12 substr. MG1655
Escherichia coli [34] = assay: Antibacterial activity against Escherichia coli MG1655 harboring pGrpE-lux assessed as maximum induction factor at 10^-9 M after 120 mins by luminometric analysis; assay type: functional, K-12 substr. MG1655
Escherichia coli [35] = assay: Antibacterial activity against Escherichia coli MG1655 harboring pIbpA-lux assessed as maximum induction factor at 10^-9 M after 120 mins by luminometric analysis; assay type: functional, K-12 substr. MG1655
[36] = Activation of quorum sensing system luxR in Escherichia coli MG1655 harboring pVFR1-lux assessed as maximum induction factor at 10^-9 M after 120 mins by luminometric analysis; settings: Escherichia coli str. K-12 substr. MG1655
Escherichia coli [37] = assay: Antibacterial activity against Escherichia coli MG1655 harboring pGrpE-lux assessed as maximum induction factor at 10^-10 M after 120 mins by luminometric analysis; assay type: functional, K-12 substr. MG1655
Escherichia coli [38] = assay: Antibacterial activity against Escherichia coli MG1655 harboring pSoxS-lux assessed as maximum induction factor at 10^-11 M after 120 mins by luminometric analysis; assay type: functional, K-12 substr. MG1655
Escherichia coli [39] = assay: Antibacterial activity against Escherichia coli MG1655 harboring pKatG-lux assessed as maximum induction factor at 10^-11 M after 120 mins by luminometric analysis; assay type: functional, K-12 substr. MG1655

For `O=[N+]([O-])c1cc([N+](=O)[O-])c2no[n+]([O-])c2c1Sc1nc2ccccc2s1`, the Activity (Escherichia coli [1]) was 1.07, the Activity [2] was 1.51 and the Activity (Escherichia coli [3]) was 0.94. For the same molecule, the Activity (Escherichia coli [4]) was 1.31, the Activity (Escherichia coli [5]) was 1.03 and the Activity (Escherichia coli [6]) was 0.87. For the same molecule, the Activity (Escherichia coli [7]) was 1.37, the Activity (Escherichia coli [8]) was 1.13 and the Activity (Escherichia coli [9]) was 1.46. It also gave an Activity (Vibrio sp. [10]) of 22.52, an Activity (Vibrio sp. [11]) of 11.61 and an Activity (Vibrio sp. [12]) of 19.14. It also gave an Activity (Escherichia coli [13]) of 3.82, an Activity (Escherichia coli [14]) of 0 and an Activity (Escherichia coli [15]) of 2.74. For the same molecule, the Activity (Escherichia coli [16]) was 0.18, the Activity (Escherichia coli [17]) was 0.25 and the Activity (Escherichia coli [18]) was 1.19. The Activity (Escherichia coli [19]) was 2.71, the Activity [20] was 0.99 and the Activity (Escherichia coli [21]) was 0.88. The Activity [22] was 1.64, the Activity (Escherichia coli [23]) was 1.28 and the Activity (Escherichia coli [24]) was 0.8. The Activity (Escherichia coli [25]) was 0.91, the Activity (Escherichia coli [26]) was 1.01 and the Activity (Escherichia coli [27]) was 1.07. The Activity (Escherichia coli [28]) was 1.12, the Activity [29] was 1.71 and the Activity (Escherichia coli [30]) was 1.08. It also gave an Activity [31] of 2.77, an Activity (Escherichia coli [32]) of 1.08 and an Activity (Escherichia coli [33]) of 1.02. It also gave an Activity (Escherichia coli [34]) of 1.03, an Activity (Escherichia coli [35]) of 1.09 and an Activity [36] of 1.74. It also gave an Activity (Escherichia coli [37]) of 1.15, an Activity (Escherichia coli [38]) of 0.99 and an Activity (Escherichia coli [39]) of 1.03.
